Structures are written as SMILES.

T1 sequence (P00533 25-1210): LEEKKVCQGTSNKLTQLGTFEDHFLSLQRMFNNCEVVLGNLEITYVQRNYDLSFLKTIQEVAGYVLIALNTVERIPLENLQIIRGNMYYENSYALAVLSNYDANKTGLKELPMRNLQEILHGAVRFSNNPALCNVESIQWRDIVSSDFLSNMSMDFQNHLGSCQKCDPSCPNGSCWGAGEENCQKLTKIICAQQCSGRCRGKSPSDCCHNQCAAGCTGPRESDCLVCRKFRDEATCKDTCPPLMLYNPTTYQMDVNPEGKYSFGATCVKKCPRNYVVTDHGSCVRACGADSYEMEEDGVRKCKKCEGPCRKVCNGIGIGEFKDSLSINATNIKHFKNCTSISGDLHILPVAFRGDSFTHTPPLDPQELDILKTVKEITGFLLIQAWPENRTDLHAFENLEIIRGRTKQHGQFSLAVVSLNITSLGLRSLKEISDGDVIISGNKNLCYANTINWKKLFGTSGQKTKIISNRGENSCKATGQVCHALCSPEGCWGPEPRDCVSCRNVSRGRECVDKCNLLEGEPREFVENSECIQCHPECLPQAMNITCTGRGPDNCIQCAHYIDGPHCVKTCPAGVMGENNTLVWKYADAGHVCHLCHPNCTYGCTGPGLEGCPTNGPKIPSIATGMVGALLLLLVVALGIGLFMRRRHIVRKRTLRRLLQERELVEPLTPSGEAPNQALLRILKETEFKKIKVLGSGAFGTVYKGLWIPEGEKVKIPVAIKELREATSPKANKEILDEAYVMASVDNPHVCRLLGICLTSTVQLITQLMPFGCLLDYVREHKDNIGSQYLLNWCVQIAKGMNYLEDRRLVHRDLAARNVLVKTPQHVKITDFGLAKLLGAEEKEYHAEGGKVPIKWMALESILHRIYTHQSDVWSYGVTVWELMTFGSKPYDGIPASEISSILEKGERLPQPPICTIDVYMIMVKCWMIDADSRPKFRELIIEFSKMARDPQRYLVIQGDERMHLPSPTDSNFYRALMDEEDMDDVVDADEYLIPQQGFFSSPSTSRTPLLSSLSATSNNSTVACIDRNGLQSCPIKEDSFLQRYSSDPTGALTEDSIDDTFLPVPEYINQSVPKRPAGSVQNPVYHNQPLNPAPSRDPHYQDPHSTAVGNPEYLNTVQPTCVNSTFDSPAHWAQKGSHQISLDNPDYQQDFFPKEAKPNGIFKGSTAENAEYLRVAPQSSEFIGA
Sequence of Epidermal Growth Factor Receptor (EGFR) (P00533 25-1210): as above

The first assay has as its target T1, Epidermal Growth Factor Receptor (EGFR), extracellular domain (EGFR-ECD) (Homo sapiens, UniProt P00533).
T1 construct: full-length EGFR in DiscoverX PathHunter enzyme-complementation cells, EGF-stimulated
The assay can be described thus: SPR competition: dose-dependent decrease of EGF binding to immobilized EGFR-ECD (no SPR value printed); the IC50 is from the PathHunter cell EGFR dimerization assay. It counts as cell-based.
Details: not given
For orientation: IC50 means the concentration needed to halve the response being measured. Low values mean inhibition by little substance, high ones a need for much substance. Turning to `O=C1Nc2ccc([N+](=O)[O-])cc2C1=Nc1cccc(C(F)(F)F)c1` [DSF-102], the IC50 is 13.2 ± 2.1 µM.

A further assay addresses T1, Epidermal Growth Factor Receptor (EGFR), extracellular domain (EGFR-ECD). Briefly: cell-based. Details: DiscoverX PathHunter EGFR dimerization/activation assay, chemiluminescence.
Details: not given
The procedure: The inhibition of the EGFR dimerization assay was conducted using the PathHunter kit following the producer instructions and with cetuximab as a positive control. For IC50 determination, the selected compounds were tested at different concentration (range 0.1–100 µM) and the IC50 values were calculated by the four parameters logistic (4-PL) model. Evaluation was based on means from at least four independent experiments. The discovery of orally available small molecules able to impair the EGFR activation targeting the extracellular domain could be of great interest for cancer treatment. To pursue this goal, a suitable high/medium throughput screening method is required. In this respect, a commercially available kit (PathHunter® from DiscoverX©; San Francisco, CA, USA) for the screening of compounds able to prevent EGFR activation (either dimerization or autophosphorylation) has been developed in recent years. This assay measures the chemiluminescent signal produced as a consequence of ligand-induced dimerization/activation of EGFR [16]. Our interest in kinase inhibitors and the readily availability of such kit prompted us to start a campaign for the discovery of small molecules targeting the extracellular domain of EGFR.
In general, inhibition refers to the change of the read-out against control, counted positive when it falls. Molecule `Cc1oc2c(C)c3oc(=O)c(CC(=O)NCc4ccccc4Cl)c(C)c3cc2c1C` [DSF055] had an inhibition at 10 µM of 46 ± 1% and an inhibition at 50 µM of 46 ± 5%.

As to `Cc1ccc(NC(=O)Nc2ccc(Nc3cc(-c4ccccc4)ncn3)cc2)cc1` [DSF056], the inhibition at 10 µM turned out to be 0% and the inhibition at 50 µM was 22 ± 5%.

`O=C(Nc1ccc(Nc2cc(-c3ccccc3)ncn2)cc1)Nc1ccc(C(=O)O)cc1` [DSF057] gave an inhibition at 10 µM of 17 ± 2% and an inhibition at 50 µM of 44 ± 5%.

In turn, `COc1cccc(Nc2ncc(C(=O)O)c(O)n2)c1` [DSF058] registered an inhibition at 10 µM of 12 ± 2% and an inhibition at 50 µM of 5 ± 5%.

Turning to `Cc1ccc([N+](=O)[O-])cc1Nc1nccc(-c2cccnc2)n1` [DSF059], the inhibition at 10 µM was 0% and 50 µM produced 0% inhibition.

In the case of `Cc1nc(Cl)cc(Nc2ncc(C(=O)O)s2)n1` [DSF060], the inhibition at 10 µM was 0% and at 50 µM the inhibition was 0%.

Molecule `O=C(NC(=O)c1ccccc1)Nc1cccc(Oc2ncc(Cl)cn2)c1` [DSF061] gave an inhibition at 10 µM of 20 ± 4% and an inhibition at 50 µM of 1 ± 1%.

`O=C(NC(=S)Nc1cccc(Oc2ncc(Cl)cn2)c1)c1ccccc1` [DSF062] yielded an inhibition at 10 µM of 9 ± 3% and an inhibition at 50 µM of 21 ± 2%.

Turning to `O=C(NC(=O)c1ccccc1[N+](=O)[O-])Nc1cccc(Oc2ncc(Cl)cn2)c1` [DSF063], at 10 µM the inhibition was 0% and the inhibition at 50 µM worked out at 5 ± 5%.

In the case of `CCc1cnc(Oc2cccc(NC(=O)NC(=O)c3ccccc3)c2)nc1` [DSF064], 10 µM produced 0% inhibition and 50 µM produced 0% inhibition.

For `CCc1cnc(Oc2cccc(NC(=S)NC(=O)c3ccccc3)c2)nc1` [DSF065], 10 µM produced 0% inhibition and at 50 µM the inhibition was 22 ± 5%.

As to `CCc1cnc(Oc2cccc(NC(=O)NC(=O)c3ccccc3[N+](=O)[O-])c2)nc1` [DSF066], the inhibition at 10 µM came to 0% and the inhibition at 50 µM was found to be 0%.

The molecule `O=C(O)Cc1ccc(/N=C2/C(=O)Nc3ccccc32)cc1` [DSF067] showed an inhibition at 10 µM of 42 ± 5% and an inhibition at 50 µM of 42 ± 1%.

`O=C(O)Cc1ccc(/N=C2/C(=O)Nc3ccc(Br)cc32)cc1` [DSF068] came in with an inhibition at 10 µM of 37 ± 5% and an inhibition at 50 µM of 56 ± 4%.

As for `O=C1Nc2ccccc2/C1=N\c1cccc(C(F)(F)F)c1` [DSF069], the inhibition at 10 µM was found to be 27 ± 5% and testing at 50 µM gave an inhibition of 56 ± 2%.

Molecule `COc1ccc(OC)c(/N=C2/C(=O)Nc3ccc(Br)cc32)c1` [DSF070] displayed an inhibition at 10 µM of 20 ± 5% and an inhibition at 50 µM of 41 ± 1%.

In the case of `CC(=O)Nc1ccc(/C=C2/N=C(c3cccc(C(=O)O)c3)OC2=O)cc1` [DSF071], at 10 µM the inhibition was 0% and the inhibition at 50 µM stood at 0%.

Regarding `COc1cc(/C=C2/N=C(c3ccccc3)OC2=O)ccc1OC(C)=O` [DSF072], the inhibition at 10 µM was 16 ± 4% and the inhibition at 50 µM is 39 ± 2%.

The molecule `CN(C)c1ccc(/C=C2/N=C(c3ccccc3)OC2=O)cc1` [DSF073] registered an inhibition at 10 µM of 23 ± 1% and an inhibition at 50 µM of 36 ± 3%.

In turn, `O=C1OC(c2ccccc2)=N/C1=C/c1cnc2ccccc2c1` [DSF074] returned an inhibition at 10 µM of 10 ± 3% and an inhibition at 50 µM of 48 ± 2%.

Take `O=C1OC(c2ccccc2)=N/C1=C/c1ccc[nH]1` [DSF075]: the inhibition at 10 µM came out at 18 ± 5% and at 50 µM the inhibition was 34 ± 4%.

On to `COc1ccc(/C=C2/N=C(c3ccccc3)OC2=O)cc1` [DSF076], for which 10 µM produced 25 ± 2% inhibition and at 50 µM the inhibition was 18 ± 4%.

In turn, `CC(=O)n1cc(/C=C2/N=C(c3ccccc3)OC2=O)c2ccccc21` [DSF077] returned an inhibition at 10 µM of 7 ± 1% and an inhibition at 50 µM of 39 ± 1%.

On to `CC(=O)Nc1ccc(/C=C2/N=C(c3cccnc3Cl)OC2=O)cc1` [DSF078], for which the inhibition at 10 µM is 7 ± 1% and the inhibition at 50 µM turned out to be 37 ± 4%.

`COc1ccc([N+](=O)[O-])c(C2=NC(=Cc3ccc(NC(C)=O)cc3)C(=O)O2)c1` [DSF079] returned an inhibition at 10 µM of 3 ± 1% and an inhibition at 50 µM of 41 ± 2%.

With `CC(=O)Nc1ccc(C=C2N=C(c3ccc([N+](=O)[O-])cc3O)OC2=O)cc1` [DSF080], at 10 µM the inhibition was 11 ± 5% and testing at 50 µM gave an inhibition of 28 ± 3%.

Molecule `O=C(O)Cc1ccc(S(=O)(=O)Nc2ccccc2)cc1` [DSF081] came in with an inhibition at 10 µM of 21 ± 5% and an inhibition at 50 µM of 26 ± 1%.

Turning to `O=C(O)c1ccc(NS(=O)(=O)c2ccc(Cl)cc2[N+](=O)[O-])cc1` [DSF084], the inhibition at 10 µM came out at 19 ± 2% and the inhibition at 50 µM amounted to 29 ± 3%.

With `O=C(O)c1ccc(NS(=O)(=O)c2ccc(Cl)cc2[N+](=O)[O-])cc1O` [DSF085], testing at 10 µM gave an inhibition of 0% and testing at 50 µM gave an inhibition of 36 ± 5%.

As for `O=[N+]([O-])c1cc(Cl)ccc1S(=O)(=O)Nc1cccc(Cl)c1` [DSF086], at 10 µM the inhibition was 0% and the inhibition at 50 µM worked out at 19 ± 4%.

For the molecule `CCOC(=O)c1ccc(NS(=O)(=O)c2ccc(Cl)cc2[N+](=O)[O-])cc1` [DSF087], the inhibition at 10 µM is 2 ± 3% and the inhibition at 50 µM stood at 36 ± 4%.

Consider `COc1ccc(OC)c(NS(=O)(=O)c2ccc(Cl)cc2[N+](=O)[O-])c1` [DSF088], for which 10 µM produced 0% inhibition and the inhibition at 50 µM was 22 ± 3%.

`O=[N+]([O-])c1cc(Cl)ccc1S(=O)(=O)N1CCOCC1` [DSF089]: the inhibition at 10 µM turned out to be 20 ± 5% and testing at 50 µM gave an inhibition of 22 ± 4%.

On to `O=[N+]([O-])c1cc(Cl)ccc1S(=O)(=O)N1CCCCC1` [DSF090], for which 10 µM produced 12 ± 2% inhibition and 50 µM produced 19 ± 1% inhibition.

Still in this assay, the particulars now being: inhibitor; % inhibition @ 10 uM, 10 µM.
Turning to `Cc1cccc(C)c1NS(=O)(=O)c1ccc(CC(=O)O)cc1` [DSF082], the “% inhibition @ 10 uM” value amounted to 16 ± 1%.

In the case of `Cc1cccc(C)c1NS(=O)(=O)c1ccc(CC(=O)O)cc1` [DSF083], the “% inhibition @ 10 uM” value came out at 36 ± 4%.

Still in this assay, the particulars now being: inhibitor; % inhibition @ 50 uM, 50 µM.
For `Cc1cccc(C)c1NS(=O)(=O)c1ccc(CC(=O)O)cc1` [DSF082], the “% inhibition @ 50 uM” value came to 19 ± 5%.

As for `Cc1cccc(C)c1NS(=O)(=O)c1ccc(CC(=O)O)cc1` [DSF083], the “% inhibition @ 50 uM” value was 49 ± 3%.

Another assay has as its target Epidermal Growth Factor Receptor (EGFR) (Homo sapiens, UniProt P00533). Briefly: PathHunter cell-based EGFR dimerization assay, dose-response.
Details: not given
`O=C1Nc2ccc(Br)cc2C1=Nc1cccc(C(F)(F)F)c1` [DSF-097] returned a half-inhibitory concentration (IC50) of 38.8 ± 3.6 µM.

Turning to `O=C1Nc2cc(Cl)c(F)cc2C1=Nc1cccc(C(F)(F)F)c1` [DSF-099], half-maximal inhibition (IC50) required 27.7 ± 4.5 µM.

(Values after article PMC9367601 (Cancers, 2022).)
